Assay results taken from US20130338106A1, “COMPOUNDS INHIBITING LEUCINE-RICH REPEAT KINASE ENZYME ACTIVITY” (priority 2011, published 2013).

Target: T1, LRRK2 G2019S mutant kinase (Homo sapiens, UniProt Q5S007, G2019S)
T1 construct: GST; purchased Invitrogen PV4882
Assay: LRRK2 G2019S LanthaScreen TR-FRET kinase assay
Type: biochemical
Details: LRRK2 G2019S GST-tagged protein, 100 μM ATP, LRRKtide substrate; read-out: IC50 (potency)
Protocol: Activity of compounds against LRRK2 G2019S mutant kinase function was tested in a LANTHAScreen® assay as follows: Compounds were diluted in 100% DMSO to the desired test concentrations in white, low-volume 384-well plates (PerkinElmer ProxiPlate® PN: 6008280). TR-FRET kinase reactions (10 μL) were performed with 75 nM Fluorescein-ERM (LRRKtide, Invitrogen, PN:PV4901) substrate in a final assay buffer containing 100 μM ATP and 2 mM DTT diluted in commercially available Kinase Buffer S (Invitrogen PN: PV5213). The final solvent concentration in the assay was 1% DMSO. Reactions were initiated with the addition of 10 ng/well of LRRK2 02019S, GST-tagged protein (Invitrogen PN: PV4882). After incubation of the foil sealed reaction plates at room temperature with low speed mixing for 1 hour, the kinase reaction was stopped and the amount of substrate phosphorylation was detected by addition of 10 μL of 10 mM EDTA and 2 nM Tb-anti-pERM (pLRRKtide antibody, Invitrogen, PN: PV4898) antibody in TR-FRET dilution buffer (Invitrogen PN: PV3574). After a 30 minute incubation at room temperature with low speed mixing, foil seals were removed and measurements were obtained on a PerkinElmer EnVision with excitation 340 nm, emission 520 nm (channel 1): 495 nm (channel 2) settings. Generation of raw data and workup of data to derive the IC50 (potency) and maximal inhibition at concentrations tested were performed using Merck's Assay Data Analyzer (ADA) software.

T1 sequence (Q5S007 whole entry G2019S): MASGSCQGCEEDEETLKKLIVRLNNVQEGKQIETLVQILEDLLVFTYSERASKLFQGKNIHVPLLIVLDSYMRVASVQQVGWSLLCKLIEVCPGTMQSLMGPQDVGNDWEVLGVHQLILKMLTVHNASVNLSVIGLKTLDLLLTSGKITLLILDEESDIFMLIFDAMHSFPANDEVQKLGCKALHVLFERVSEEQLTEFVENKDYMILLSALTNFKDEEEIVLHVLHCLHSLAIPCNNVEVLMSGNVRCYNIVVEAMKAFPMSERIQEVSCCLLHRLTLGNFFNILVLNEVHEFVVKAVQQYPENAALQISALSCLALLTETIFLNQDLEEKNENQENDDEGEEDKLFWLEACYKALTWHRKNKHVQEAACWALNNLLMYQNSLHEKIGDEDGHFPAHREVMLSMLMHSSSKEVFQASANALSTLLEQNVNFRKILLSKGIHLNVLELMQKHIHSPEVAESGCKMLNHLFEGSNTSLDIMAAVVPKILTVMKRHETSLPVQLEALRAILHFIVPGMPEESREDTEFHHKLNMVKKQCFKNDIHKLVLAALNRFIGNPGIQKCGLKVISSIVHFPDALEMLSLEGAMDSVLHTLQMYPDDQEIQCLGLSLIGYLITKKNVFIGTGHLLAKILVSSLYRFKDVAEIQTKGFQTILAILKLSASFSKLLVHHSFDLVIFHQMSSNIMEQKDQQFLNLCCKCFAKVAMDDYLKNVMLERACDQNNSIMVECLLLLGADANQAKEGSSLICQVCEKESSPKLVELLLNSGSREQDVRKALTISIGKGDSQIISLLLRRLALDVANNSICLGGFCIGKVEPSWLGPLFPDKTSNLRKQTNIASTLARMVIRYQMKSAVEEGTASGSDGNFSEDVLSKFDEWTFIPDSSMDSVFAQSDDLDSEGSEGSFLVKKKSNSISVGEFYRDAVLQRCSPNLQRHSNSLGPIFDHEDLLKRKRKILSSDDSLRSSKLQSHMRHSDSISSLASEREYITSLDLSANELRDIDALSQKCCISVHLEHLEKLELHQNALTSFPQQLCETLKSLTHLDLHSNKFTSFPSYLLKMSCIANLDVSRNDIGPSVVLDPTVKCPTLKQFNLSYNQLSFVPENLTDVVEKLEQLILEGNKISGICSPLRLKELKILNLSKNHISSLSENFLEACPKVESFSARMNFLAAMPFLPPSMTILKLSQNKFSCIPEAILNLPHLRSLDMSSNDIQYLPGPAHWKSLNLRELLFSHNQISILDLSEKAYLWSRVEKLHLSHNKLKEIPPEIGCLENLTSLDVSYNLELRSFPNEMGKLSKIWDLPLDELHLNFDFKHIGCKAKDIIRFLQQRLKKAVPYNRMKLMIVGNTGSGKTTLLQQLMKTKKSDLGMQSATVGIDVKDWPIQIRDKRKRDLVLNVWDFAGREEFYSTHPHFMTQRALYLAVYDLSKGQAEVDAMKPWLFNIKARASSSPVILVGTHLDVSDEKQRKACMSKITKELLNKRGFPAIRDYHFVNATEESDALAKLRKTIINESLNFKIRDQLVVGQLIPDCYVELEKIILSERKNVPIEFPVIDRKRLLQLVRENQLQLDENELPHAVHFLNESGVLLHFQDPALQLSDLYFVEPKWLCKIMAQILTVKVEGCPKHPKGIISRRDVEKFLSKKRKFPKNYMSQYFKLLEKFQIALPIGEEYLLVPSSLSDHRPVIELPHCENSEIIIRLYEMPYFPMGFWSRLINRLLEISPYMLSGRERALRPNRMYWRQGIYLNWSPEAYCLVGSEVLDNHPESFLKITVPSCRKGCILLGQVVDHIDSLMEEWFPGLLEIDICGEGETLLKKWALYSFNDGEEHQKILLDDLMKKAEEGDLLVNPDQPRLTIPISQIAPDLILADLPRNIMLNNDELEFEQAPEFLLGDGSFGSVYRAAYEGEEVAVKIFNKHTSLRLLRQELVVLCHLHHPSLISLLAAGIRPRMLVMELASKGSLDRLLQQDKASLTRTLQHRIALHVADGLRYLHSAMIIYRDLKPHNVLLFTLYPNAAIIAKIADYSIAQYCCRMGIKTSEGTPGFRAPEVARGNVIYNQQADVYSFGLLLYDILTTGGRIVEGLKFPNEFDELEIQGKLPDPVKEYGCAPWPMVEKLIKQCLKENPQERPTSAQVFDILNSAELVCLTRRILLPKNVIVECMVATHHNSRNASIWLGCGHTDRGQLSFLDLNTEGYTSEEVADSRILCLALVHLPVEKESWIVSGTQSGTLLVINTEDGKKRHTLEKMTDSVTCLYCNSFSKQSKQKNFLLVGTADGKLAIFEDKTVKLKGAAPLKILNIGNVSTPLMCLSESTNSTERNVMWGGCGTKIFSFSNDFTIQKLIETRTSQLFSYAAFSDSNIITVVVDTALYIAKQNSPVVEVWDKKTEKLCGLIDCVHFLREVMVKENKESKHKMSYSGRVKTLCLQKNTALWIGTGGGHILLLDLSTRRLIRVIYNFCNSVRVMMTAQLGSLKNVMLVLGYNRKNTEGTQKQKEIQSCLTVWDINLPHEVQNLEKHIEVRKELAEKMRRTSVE

SMILES | IC50 [nM]
CCSc1sc(-c2cc[nH]n2)c2c1C(=O)CC(C)(C)C2 [Example 8, 3-(Ethylsulfanyl)-6,6-dimethyl-1-(1H-pyrazol-3-yl)-6,7-dihydro-2-benzothiophen-4(5H)-one] | 180
CC1(C)CC(=O)c2c(NC3CCCC3)sc(-c3cc[nH]n3)c2C1 [Example 49, 3-(Cyclopentylamino)-6,6-dimethyl-1-(1H-pyrazol-3-yl)-6,7-dihydro-2-benzothiophen-4(5H)-one] | 97
CC1(C)CC(=O)c2c(SCC(O)CO)sc(-c3cc[nH]n3)c2C1 (stereo not drawn) [Example 25, 3-[(2,3-Dihydroxypropyl)sulfanyl]-6,6-dimethyl-1-(1H-pyrazol-3-yl)-6,7-dihydro-2-benzothiophen-4(5H)-one] | 740
CC1(C)CC(=O)c2c(NCCc3ccccn3)sc(-c3cc[nH]n3)c2C1 [Example 47, 6,6-Dimethyl-1-(1H-pyrazol-3-yl)-3-{[2-(pyridin-2-yl)ethyl]amino}-6,7-dihydro-2-benzothiophen-4(5H)-one] | 290
CC1(C)CC(=O)c2c(SCCO)sc(-c3cc[nH]n3)c2C1 [Example 10, 3-[(2-Hydroxyethyl)sulfanyl]-6,6-dimethyl-1-(1H-pyrazol-3-yl)-6,7-dihydro-2-benzothiophen-4(5H)-one] | 240
CCc1cc(-c2sc(SC)c3c2CC(C)(C)CC3=O)n[nH]1 [Example 90, 1-(5-Ethyl-1H-pyrazol-3-yl)-6,6-dimethyl-3-(methylsulfanyl)-6,7-dihydro-2-benzothiophen-4(5H)-one] | 450
CC1(C)CC(=O)c2c(NC3CCCC3)sc(-c3ccn(C(=O)Nc4ccc(Cl)cc4)n3)c2C1 [Example 73, N-(4-Chlorophenyl)-3-[3-(cyclopentylamino)-6,6-dimethyl-4-oxo-4,5,6,7-tetrahydro-2-benzothiophen-1-yl]-1H-pyrazole-1-carboxamide] | 280
CC1(C)CC(=O)c2c(SC3CCCC3)sc(-c3ccn(C(=O)c4ccc(C#N)cc4)n3)c2C1 [Example 77, 4-({3-[3-(Cyclopentylsulfanyl)-6,6-dimethyl-4-oxo-4,5,6,7-tetrahydro-2-benzothiophen-1-yl]-1H-pyrazol-1-yl}carbonyl)benzonitrile] | 260
CC1(C)CC(=O)c2c(SC3CCCC3)sc(-c3ccn(C(=O)C4CCCCC4)n3)c2C1 [Example 83, 1-[1-(Cyclohexylcarbonyl)-1H-pyrazol-3-yl]-3-(cyclopentylsulfanyl)-6,6-dimethyl-6,7-dihydro-2-benzothiophen-4(5H)-one] | 4000
CN(C)CCSc1sc(-c2cc[nH]n2)c2c1C(=O)CC(C)(C)C2 [Example 13, 3-{[2-(Dimethylamino)ethyl]sulfanyl}-6,6-dimethyl-1-(1H-pyrazol-3-yl)-6,7-dihydro-2-benzothiophen-4(5H)-one] | 520
CC1(C)CC(=O)c2c(SC3CCCC3)sc(-c3ccn(C(=O)Nc4cccc(C#N)c4)n3)c2C1 [Example 68, N-(3-Cyanophenyl)-3-[3-(cyclopentylsulfanyl)-6,6-dimethyl-4-oxo-4,5,6,7-tetrahydro-2-benzothiophen-1-yl]-1H-pyrazole-1-carboxamide] | 130
CC1(C)CC(=O)c2c(SC3CCCC3)sc(-c3ccn(C(=O)c4ccc(F)c(F)c4)n3)c2C1 [Example 84, 3-(Cyclopentylsulfanyl)-1-{1-[(3,4-difluorophenyl)carbonyl]-1H-pyrazol-3-yl}-6,6-dimethyl-6,7-dihydro-2-benzothiophen-4(5H)-one] | 400
CC1(C)CC(=O)c2c(N3CCC3)sc(-c3cc[nH]n3)c2C1 [Example 40, 3-(Azetidin-1-yl)-6,6-dimethyl-1-(1H-pyrazol-3-yl)-6,7-dihydro-2-benzothiophen-4(5H)-one] | 580
CN1CCN(CCCNc2sc(-c3cc[nH]n3)c3c2C(=O)CC(C)(C)C3)CC1 [Example 42, 6,6-Dimethyl-3-{[3-(4-methylpiperazin-1-yl)propyl]amino}-1-(1H-pyrazol-3-yl)-6,7-dihydro-2-benzothiophen-4(5H)-one] | 420
CC1(C)CC(=O)c2c(SCc3ccccc3)sc(-c3cc[nH]n3)c2C1 [Example 14, 3-(Benzylsulfanyl)-6,6-dimethyl-1-(1H-pyrazol-3-yl)-6,7-dihydro-2-benzothiophen-4(5H)-one] | 860
CC1(C)CC(=O)c2c(SCC[Si](C)(C)C)sc(-c3cc[nH]n3)c2C1 [Example 31, 6,6-Dimethyl-1-(1H-pyrazol-3-yl)-3-{[2-(trimethylsilyl)ethyl]sulfanyl}-6,7-dihydro-2-benzothiophen-4(5H)-one] | 1900
CCC(C)NC(=O)n1ccc(-c2sc(SC3CCCC3)c3c2CC(C)(C)CC3=O)n1 (stereo not drawn) [Example 71, N-(Butan-2-yl)-3-[3-(cyclopentylsulfanyl)-6,6-dimethyl-4-oxo-4,5,6,7-tetrahydro-2-benzothiophen-1-yl]-1H-pyrazole-1-carboxamide] | 1700

SMILES | IC50 [nM]
CCCCCCSc1sc(-c2cc[nH]n2)c2c1C(=O)CC(C)(C)C2 [Example 34, 3-(Hexylsulfanyl)-6,6-dimethyl-1-(1H-pyrazol-3-yl)-6,7-dihydro-2-benzothiophen-4(5H)-one] | 1300
CC1(C)CC(=O)c2c(SC3CCCC3)sc(-c3ccn(C(=O)Nc4ccc5ccccc5c4)n3)c2C1 [Example 63, 3-[3-(Cyclopentylsulfanyl)-6,6-dimethyl-4-oxo-4,5,6,7-tetrahydro-2-benzothiophen-1-yl]-N-(naphthalen-2-yl)-1H-pyrazole-1-carboxamide] | 110
CC1(C)CC(=O)c2c(SC3CCCC3)sc(-c3ccn(C(=O)NCCc4ccccc4)n3)c2C1 [Example 69, 3-[3-(Cyclopentylsulfanyl)-6,6-dimethyl-4-oxo-4,5,6,7-tetrahydro-2-benzothiophen-1-yl]-N-(2-phenylethyl)-1H-pyrazole-1-carboxamide] | 4200
CC1(C)CC(=O)c2c(SCCCO)sc(-c3cc[nH]n3)c2C1 [Example 11, 3-[(3-Hydroxypropyl)sulfanyl]-6,6-dimethyl-1-(1H-pyrazol-3-yl)-6,7-dihydro-2-benzothiophen-4(5H)-one] | 200
CC(C)C(=O)n1ccc(-c2sc(SC3CCCC3)c3c2CC(C)(C)CC3=O)n1 [Example 78, 3-(Cyclopentylsulfanyl)-6,6-dimethyl-1-[1-(2-methylpropanoyl)-1H-pyrazol-3-yl]-6,7-dihydro-2-benzothiophen-4(5H)-one] | 1500
CC(C)NC(=O)n1ccc(-c2sc(SC3CCCC3)c3c2CC(C)(C)CC3=O)n1 [Example 57] | 1400
CC1(C)CC(=O)c2c(SCC3CC3)sc(-c3cc[nH]n3)c2C1 [Example 22, 3-[(Cyclopropylmethyl)sulfanyl]-6,6-dimethyl-1-(1H-pyrazol-3-yl)-6,7-dihydro-2-benzothiophen-4(5H)-one] | 130
CC1(C)CC(=O)c2c(NCCCCCCO)sc(-c3cc[nH]n3)c2C1 [Example 50, 3-[(6-Hydroxyhexyl)amino]-6,6-dimethyl-1-(1H-pyrazol-3-yl)-6,7-dihydro-2-benzothiophen-4(5H)-one] | 180
CC(O)CSc1sc(-c2cc[nH]n2)c2c1C(=O)CC(C)(C)C2 (stereo not drawn) [Example 16, 3-[(2-Hydroxypropyl)sulfanyl]-6,6-dimethyl-1-(1H-pyrazol-3-yl)-6,7-dihydro-2-benzothiophen-4(5H)-one] | 220
CC1(C)CC(=O)c2c(SCCCCCCN)sc(-c3cc[nH]n3)c2C1 [Example 24, 3-[(6-Aminohexyl)sulfanyl]-6,6-dimethyl-1-(1H-pyrazol-3-yl)-6,7-dihydro-2-benzothiophen-4(5H)-one] | 70
CC1(C)CC(=O)c2c(SC3CCCC3)sc(-c3ccn(C(=O)c4ccc(F)cc4)n3)c2C1 [Example 81, 3-(Cyclopentylsulfanyl)-1-{1-[(4-fluorophenyl)carbonyl]-1H-pyrazol-3-yl}-6,6-dimethyl-6,7-dihydro-2-benzothiophen-4(5H)-one] | 970
CNc1sc(-c2cc[nH]n2)c2c1C(=O)CC(C)(C)C2 [Example 36, 6,6-Dimethyl-3-(methylamino)-1-(1H-pyrazol-3-yl)-6,7-dihydro-2-benzothiophen-4(5H)-one] | 760
CC1(C)CC(=O)c2c(NCCN3CCOCC3)sc(-c3cc[nH]n3)c2C1 [Example 45, 6,6-Dimethyl-3-{[2-(morpholin-4-yl)ethyl]amino}-1-(1H-pyrazol-3-yl)-6,7-dihydro-2-benzothiophen-4(5H)-one] | 250
CC1(C)CC(=O)c2c(SCCCCCCN=[N+]=[N-])sc(-c3cc[nH]n3)c2C1 [Example 20, 3-[(6-Azidohexyl)sulfanyl]-6,6-dimethyl-1-(1H-pyrazol-3-yl)-6,7-dihydro-2-benzothiophen-4(5H)-one] | 490
CC1(C)CC(=O)c2c(NC3CCCCC3)sc(-c3cc[nH]n3)c2C1 [Example 39, 3-(Cyclohexylaminn)-6,6-dimethyl-1-(1H-pyrazol-3-yl)-6,7-dihydro-2-benzothiophen-4(5H)-one] | 240
N#Cc1ccc(NC(=O)n2ccc(-c3sc(NC4CCCC4)c4c3CCCC4=O)n2)cc1 [Example 87, N-(4-cyanophenyl)-3-[3-(cyclopentylamino)-4-oxo-4,5,6,7-tetrahydro-2-benzothiophen-1-yl]-1H-pyrazole-1-carboxamide] | 330
